Data set [1] is described as follows: Stimulation of IL-2-treated human Vgamma9Vdelta2 T cell proliferation assessed as IFN-gamma release pretreated human […] cells with compound for 1 hr followed by compound washout and addition of washed K562 cells to medium containing Vgamma9Vdelta2 T cells measured after 20 hrs by ELISA. Type of data set: functional, cell-based. A general note: ELISA stands for enzyme-linked immunosorbent assay.

A short description of data set [2]: Stability in human plasma assessed as half life at 100 uM by LCMS analysis. The format is ADME, cell-free.
Data set [3] in a line: Prodrug conversion in human plasma assessed as formation of Ac-monoanion metabolite by measuring metabolite peak intensity at 100 uM incubated for 1 hr by LCMS analysis. The format is ADME, cell-free.
Data set [4] is described as follows: Stability in human plasma assessed as compound remaining at 100 uM measured after 2 hrs by MS analysis. Type of data set: ADME, cell-free. The conditions noted are these: for Stability: 2 h, 100 µM.
Data set [5] in a line: Prodrug conversion in human plasma assessed as formation of di-anion metabolite by measuring metabolite peak intensity at 100 uM incubated for 1 hr by LCMS analysis. Type of data set: ADME, cell-free. More on the design: unit not given here.
A short description of data set [6]: Prodrug conversion in human K562 cells assessed as formation of di-anion metabolite by measuring metabolite peak intensity at 100 uM incubated for 1 hr by LCMS analysis. Type of data set: functional.
Data set [7] in a line: Prodrug conversion in human plasma assessed as formation of mono-anion metabolite by measuring metabolite peak intensity at 100 uM incubated for 1 hr by LCMS analysis. Type of data set: ADME, cell-free.
Data set [8] in a line: Prodrug conversion in human K562 cells assessed as formation of mono-anion metabolite by measuring metabolite peak intensity at 100 uM incubated for 1 hr by LCMS analysis. The format is functional.
Data set [9] in a line: Stability in mouse plasma assessed as compound remaining measured after 2 hrs by MS analysis. Type of data set: ADME, cell-free.
A short description of data set [10]: Stimulation of IL-2-treated human Vgamma9Vdelta2 T cell proliferation incubated for 72 hrs followed by compound washout measured after 11 days by flow cytometry. The format is functional, cell-based. For orientation: A flow cytometer gives signals particle by particle.
Data set [11] can be described thus: Prodrug conversion in human K562 cells assessed as formation of Ac-monoanion metabolite by measuring metabolite peak intensity at 100 uM incubated for 1 hr by LCMS analysis. Type of data set: functional.
The nature of data set [12]: Stability in mouse plasma assessed as half life measured after 2 hrs by MS analysis. The format is ADME, cell-free.
Data set [13] is described as follows: Stability in rat plasma assessed as compound remaining measured after 2 hrs by MS analysis. The format is ADME, cell-free.

pEC50: −log10 of the molar value.

Usually pEC50 stands for −log10 of the EC50, conventionally taken in molar units. For the molecule `CC(=O)OC/C(C)=C/CCP(=O)(OCOC(=O)c1ccccc1)Oc1ccc(C(C)C)cc1` (stereo unspecified), the pEC50 was 8.59 in data set [1] and 9.57 in data set [10]. Also, in [2], the t1/2 came to 66 min. Besides, the Activity in data set [3] was 12000; in [5], 0; in data set [6], 870; in data set [7], 300; in data set [8], 8800; in data set [11], 180. Further, the Stability is given as 34% in data set [4] and “Stable” in [9].

Regarding `COc1ccc(C(=O)OCOP(=O)(CC/C=C(\C)COC(C)=O)Oc2ccc(C(C)C)cc2)cc1` (stereo unspecified), the pEC50 was 8.39 in data set [1] and 9.08 in data set [10]. Also, in data set [2], the t1/2 is 180 min. The Activity in data set [3] was found to be 3500; in [5], 0; in data set [6] it was 360; in [7] it was 830; in data set [8], 3900; in data set [11], 18. In addition, the Stability in [4] is given as 62%; in data set [9], “Stable”.

Regarding `CC(=O)OC/C(C)=C/CCP(=O)(OCOC(=O)CC1CCOCC1)Oc1ccc(C(C)C)cc1` (stereo unspecified), the figures for the pEC50 in data set [1] and in [10] were 8.46 and 9.36, respectively. Also, the t1/2 in data set [2] worked out at 42 min. Also, the Activity was 6100 in [3]; 0 in data set [5]; 1000 in data set [6]; 3000 in data set [7]; 6300 in [8]; 49 in data set [11]. For the same molecule, the figures for the Stability in data set [4] and in [9] were 28% and “Stable”, respectively.

For `CC(=O)OC/C(C)=C/CCP(=O)(OCOC(=O)CC1CCOCC1)Oc1cccc2ccccc12` (stereo unspecified), the pEC50 in [1] was 8.27; in [10] it was 9.18. For the same molecule, in [2], the t1/2 stood at 15 min. The Activity in data set [3] turned out to be 2900; in [5] it was 0; in [6], 880; in data set [7], 2800; in [8] it was 3000; in data set [11] it was 4. The Stability in [4] was 7%; in [9], “Stable”.

In the case of `C/C(=C\CCP(=O)(OCOC(=O)CC1CCOCC1)Oc1ccc(C(C)C)cc1)CO` (stereo unspecified), the pEC50 was 8.66 in data set [1] and 9.28 in [10]. The Stability is given as 0% in [4] and “Stable” in data set [9]. Moreover, the Activity in [5] is recorded as 0; in data set [6], 640; in [7], 16000; in data set [8], 6600.

Turning to `C/C(=C\CCP(=O)(OCOC(=O)CC1CCCCC1)Oc1ccc(C(C)C)cc1)CO` (stereo unspecified), the results for the pEC50 in data set [1] and in [10] were 8.55 and 8.96, respectively. Besides, in [2], the t1/2 came to 94 min. Besides, the Stability is listed as 80% in data set [4] and “Stable” in data set [9]. For the same molecule, the Activity in [5] was determined as 0; in data set [6], 500; in data set [7], 4500; in [8], 4800.

In the case of `C/C(=C\CCP(=O)(OCOC(=O)CC1CCOCC1)Oc1cccc2ccccc12)CO` (stereo unspecified), the pEC50 is 8.32 in [1] and 9.43 in data set [10]. In addition, the results for the t1/2 in data set [2] and in data set [12] were 5.9 min and 5.6 min, respectively. Besides, the Stability in data set [4] was 0%; in data set [9] it was “Stable”; in data set [13], 65%. The Activity in data set [5] was found to be 0; in [6], 690; in data set [7], 11000; in [8], 3200.

Take `C/C(=C\CCP(=O)(OCOC(=O)C1CCCCC1)Oc1ccccc1)CO` (stereo unspecified): in [4] (read-out: Stability), the remaining at 2 h, 100 µM came out at 0%.

In the case of `COc1ccc(C(=O)OCOP(=O)(CC/C=C(\C)CO)Oc2ccc(C(C)C)cc2)cc1` (stereo unspecified), the figures for the pEC50 in [1] and in [10] were 8.19 and 8.82, respectively. Also, the t1/2 in data set [2] was 500 min. Moreover, the Stability was 71% in data set [4] and “Stable” in [9]. In addition, the Activity in data set [5] is given as 0; in data set [6] it was 590; in data set [7], 5900; in data set [8] it was 6000.

As to `CC(=O)OC/C(C)=C/CCP(=O)(OCOC(=O)CC1CCCCC1)Oc1ccc(C(C)C)cc1` (stereo unspecified), the values for the pEC50 in data set [1] and in data set [10] were 8.52 and 9.27, respectively. Further, the t1/2 in data set [2] came to 750 min. Besides, the Activity in data set [3] was 2400; in data set [5], 0; in data set [6], 410; in data set [7], 330; in [8], 3900; in data set [11], 54. The figures for the Stability in [4] and in [9] were 90% and “Stable”, respectively.

For `C/C(=C\CCP(=O)(OCOC(=O)c1ccccc1)Oc1ccc(C(C)C)cc1)CO` (stereo unspecified), the pEC50 is 8.15 in data set [1] and 9.37 in data set [10]. Besides, the Stability is listed as 13% in [4] and “Stable” in data set [9]. Moreover, the Activity in data set [5] turned out to be 0; in [6], 830; in data set [7], 7900; in [8], 10000.

Consider `CC(=O)OC/C(C)=C/CCP(=O)(OCOC(=O)C1CCOCC1)Oc1ccc(C(C)C)cc1` (stereo unspecified), for which the pEC50 in [1] was 8.66; in [10] it was 8.92. For the same molecule, the t1/2 in data set [2] worked out at 16 min. The Activity in [3] was 9900; in [5], 0; in data set [6] it was 1700; in data set [7] it was 3200; in data set [8], 8200; in data set [11] it was 67. The values for the Stability in [4] and in data set [9] were 0% and “Stable”, respectively.

As for `C/C(=C\CCP(=O)(OCOC(=O)C1CCOCC1)Oc1ccc(C(C)C)cc1)CO` (stereo unspecified), the pEC50 was 9.05 in data set [1] and 9.01 in [10]. Also, the t1/2 in data set [2] turned out to be 11 min. Besides, the results for the Stability in data set [4] and in data set [9] were 0% and “Stable”, respectively. For the same molecule, the Activity in data set [5] turned out to be 0; in [6], 1500; in data set [7] it was 13000; in [8], 18000.

Values taken from ChEMBL document CHEMBL6092182, “Enhanced Plasma Stability and Potency of Aryl/Acyloxy Prodrugs of a BTN3A1 Ligand” (ACS Med Chem Lett, 2024).
